In the assay the target is T1, human recombinant Yes [a.a. 2–543 (end)] (Homo sapiens, UniProt P07947).
T1 construct: human recombinant Yes [a.a; 2–543 (end)]; purchased BPS Bioscience 40488
T1 sequence (P07947 2-543): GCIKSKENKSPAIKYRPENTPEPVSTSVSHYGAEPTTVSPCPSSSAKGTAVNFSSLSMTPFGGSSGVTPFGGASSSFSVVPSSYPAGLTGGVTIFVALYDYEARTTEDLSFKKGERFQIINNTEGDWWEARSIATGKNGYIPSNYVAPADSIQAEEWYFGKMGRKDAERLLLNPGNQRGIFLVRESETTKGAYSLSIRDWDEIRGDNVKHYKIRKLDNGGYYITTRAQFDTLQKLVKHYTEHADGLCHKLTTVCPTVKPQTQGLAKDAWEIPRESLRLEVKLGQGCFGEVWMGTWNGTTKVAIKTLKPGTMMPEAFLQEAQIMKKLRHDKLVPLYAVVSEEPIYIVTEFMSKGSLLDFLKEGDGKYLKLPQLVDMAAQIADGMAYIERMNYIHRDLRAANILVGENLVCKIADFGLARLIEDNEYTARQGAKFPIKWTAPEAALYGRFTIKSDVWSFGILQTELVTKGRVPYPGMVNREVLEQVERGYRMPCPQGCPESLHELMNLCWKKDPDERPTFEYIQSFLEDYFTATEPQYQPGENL
As to the kind of experiment: ADP-Glo kinase assay, inhibition rates of Yes phosphorylation activity (first and second screening). The conditions noted are these: first screening; mean of n = 4 wells; 10 μmol L−1 compound. Type of assay: biochemical. As for the experimental part: All inhibitory assays of the phosphorylation activity of Yes were performed in accordance with the Promega Technical Manual for the ADP-Glo™ Kinase Assay (Fitchburg, WI, USA. Catalog number: V9102). The human recombinant Yes [a.a. 2–543 (end)] was purchased from BPS Bioscience (catalog number: 40488). The details of the assay protocol and reagent information are given elsewhere.
The screening was conducted in three steps consisting of the first screening, the second screening, and the IC50 determination, as can be illustrated in Fig. 1b. First, we determined the inhibition rates of the 1,991 compounds. Each compound was placed in 4 wells of a 384-well plate. In total, 80 compounds were assayed on one plate and the other wells were used for positive and negative controls. The compounds were randomly placed on plates so that compounds proposed by one group were not placed on a plate together. A mean of four inhibition rates for each compound was compared to criteria for the first screening. […] Second, the inhibition rates of the screened compounds were determined on one plate using the same procedure of the first screening, where compounds were dissolved from fresh powder. […] Screened compounds were then evaluated for their IC50 values.
As for `CN(Cc1ccc(OC(F)F)cc1)C(=O)CN1C(=O)NC(C)(c2ccccc2Br)C1=O` (stereo not shown) [Compound Z14158957], the “First screening IR (inhibition rate)” value is listed as 23%.
For `CCC1(c2ccc(F)cc2)NC(=O)N(CC(=O)Nc2ccc(C(=O)N(C)C)cc2)C1=O` (stereo not shown) [Compound Z14224841], the “First screening IR (inhibition rate)” value is listed as 16%.
On to `Cc1cc(C)n(-c2ccc(Cl)c(C(=O)OCC(=O)c3ccc(F)c(F)c3)n2)n1` [Compound Z15431588], for which the “First screening IR (inhibition rate)” value was determined as 20%.
For `COc1ccc(/C=C2/CC(C)Cc3c2nc2ccccc2c3C(=O)OCC(N)=O)cc1` (stereo not shown) [Compound Z15674725] the value was 30%.
Take `C/C(N)=C(\C#N)C(=O)CSc1nnc(-c2ccccc2F)n1Cc1ccccc1` [Compound Z15780020]: the “First screening IR (inhibition rate)” value is listed as -17%.
Turning to `COc1ccc(Nc2nc(COC(=O)CNS(=O)(=O)c3ccc(C)c(C)c3)cs2)cc1` [Compound Z16158532], the “First screening IR (inhibition rate)” value is -1%.
As for `O=C(CN1C(=O)NC(Cc2c[nH]c3ccccc23)C1=O)Nc1ccc(-c2ccccc2)cc1` (stereo not shown) [Compound Z16202306], the “First screening IR (inhibition rate)” value turned out to be 6%.
For `CCOc1cc(N2CCOCC2)c(OCC)cc1NC(=O)CSc1nnc(-c2ccc3c(c2)OCO3)n1-c1ccccc1` [Compound Z16253844] the value was -3%; for `Cc1cc(C(=O)CSc2nnc(-c3ccc4c(c3)OCO4)n2-c2ccccc2)c(C)n1C` [Compound Z16254213], 6%.
For `O=C(CSc1nnc(-c2ccc3c(c2)OCO3)n1-c1ccccc1)c1ccc[nH]1` [Compound Z16254229] the value was 7%; for `Cc1cccc(C(C)C)c1NC(=O)CSc1nc2ccc(Cl)cc2[nH]1` [Compound Z16257955], 4%; for `Cc1noc(C)c1CSc1ncnc2sc3c(c12)CCC(C)C3` (stereo not shown) [Compound Z16316201], -8%.
For `NS(=O)(=O)c1ccc(CCNC(=O)CSc2nnc(-c3ccccc3F)n2CCc2ccccc2)cc1` [Compound Z16426742] the value was -1%; for `O=C(CSc1nnc(-c2ccccc2F)n1CCc1ccccc1)c1ccc[nH]1` [Compound Z16427126], -9%.
As to `O=C(OCCOc1ccccc1Cl)c1cn2ccccc2n1` [Compound Z16593263], the “First screening IR (inhibition rate)” value is on record as 0%.
For `Cc1ccc(SCC(=O)OCC(=O)Nc2ccc3[nH]c(=O)[nH]c3c2)cc1C` [Compound Z16616292] the value was -13%; for `Cc1cccc(C(C)C)c1NC(=O)CSc1nc2ccc(Cl)cc2c(=O)n1CC(C)C` [Compound Z16658902], -5%.
For `C=CCN1C(=O)c2ccc(C(=O)OCc3cn4ccccc4n3)cc2C1=O` [Compound Z16715300] the value was 29%; for `Cc1noc(C)c1COC(=O)c1ccc2[nH]c(C)c(C)c2c1` [Compound Z17094388], 4%.
For `COc1ccccc1NC(=O)c1ccc(NC(=O)COc2ccc(C3SCCS3)cc2)cc1` [Compound Z17289317] the value was 1%.
In the case of `Fc1ccccc1-c1nc(SCc2cn3ccccc3n2)n[nH]1` [Compound Z17356722], the “First screening IR (inhibition rate)” value was determined as 0%.
For the compound `COCCCn1c(=O)c2ccccc2n2c(SCc3cn4ccccc4n3)nnc12` [Compound Z17893104], the “First screening IR (inhibition rate)” value is -35%.
For `CCCCCn1c(=O)c2ccccc2n2c(SCC(=O)NC(=O)NC3CCCC(C)C3C)nnc12` (stereo not shown) [Compound Z17895832], the “First screening IR (inhibition rate)” value was -5%.
For `C=CCNc1nc(C(=O)OCc2csc(-c3ccccc3)n2)cs1` [Compound Z17964966] the value was 18%; for `C=CCNc1nc(C(=O)OCCCn2c(=O)[nH]c3ccccc32)cs1` [Compound Z17965676], 5%; for `COc1cc(C(=O)OC(C)C(=O)NC(C)(C#N)C(C)C)ccc1Oc1ccc(Cl)cc1[N+](=O)[O-]` (stereo not shown) [Compound Z18025700], 1%.
On to `O=C(CSc1ccc2c(c1)OCCCO2)Nc1ccc2c(c1)CCC2` [Compound Z18212324], for which the “First screening IR (inhibition rate)” value was found to be 14%.
With `N#C/C(=C(/O)COC(=O)CCc1ccccc1)c1nc2ccccc2[nH]1` [Compound Z18264769], the “First screening IR (inhibition rate)” value is 5%.
For `O=C(COC(=O)c1ccccc1OCc1ccccc1)Nc1ccc2c(c1)CCC2` [Compound Z18387854] the value was 26%; for `Cc1ccccc1Nc1nc(N)nc(CSCc2ccc(Cl)cc2)n1` [Compound Z18432818], 6%; for `Cc1ccccc1Nc1nc(N)nc(CSc2ccccc2Cl)n1` [Compound Z18459341], 17%.
On to `Cn1nnnc1SCC(=O)c1c(-c2ccccc2)[nH]c2ccccc12` [Compound Z18519048], for which the “First screening IR (inhibition rate)” value is listed as 0%.
Consider `CC(Sc1nnnn1C)C(=O)Nc1ccc2c(c1)OCO2` (stereo not shown) [Compound Z18519758], for which the “First screening IR (inhibition rate)” value amounted to 5%.
`Cc1cc(C)c(C(=O)COc2ncnc3ccccc23)cc1C` [Compound Z18537178]: the “First screening IR (inhibition rate)” value is recorded as 7%.
With `COc1cccc(NC(=O)COc2ncnc3ccccc23)c1` [Compound Z18537695], the “First screening IR (inhibition rate)” value was -1%.
On to `Cc1cc(C(=O)COc2ncnc3ccccc23)c(C)n1CC(F)(F)F` [Compound Z18537891], for which the “First screening IR (inhibition rate)” value is 6%.
For `NC(=O)c1cc(NC(=O)COC(=O)c2c3c(nc4ccccc24)/C(=C\c2ccccc2Cl)CC3)cc(C(N)=O)c1` [Compound Z18607575] the value was 10%; for `CC(Sc1nc2nn(-c3ccccc3)c(=O)c-2c2n1CCCCC2)C(=O)NC(=O)NC1CCCCC1` (stereo not shown) [Compound Z18614891], 7%.
For `Cc1cc(C)c(C(=O)CSc2nnc(-c3c[nH]c4ccccc34)n2CC2CCCO2)c(C)c1` (stereo not shown) [Compound Z18647134] the value was -1%; for `CC(Sc1nnc(-c2c[nH]c3ccccc23)n1CC1CCCO1)C(=O)Nc1ccc(N(C)C)cc1` (stereo not shown) [Compound Z18647898], 0%.
For `O=C(CSc1nnc(-c2ccco2)o1)Nc1ccc2c(c1)CCC2` [Compound Z18650720] the value was 15%; for `Cc1ccc(-n2c(SCC(=O)Nc3ccc(N4CCOCC4)cc3)nnc2-c2cccnc2)c(C)c1` [Compound Z18666705], 54%; for `CCOc1ccc(-n2c(SCC(=O)c3ccc[nH]3)nnc2-c2ccccc2Cl)cc1` [Compound Z18672879], 7%.
On to `O=C(COC(=O)c1ccccc1NS(=O)(=O)c1ccc(F)cc1)NC1CCCc2ccccc21` (stereo not shown) [Compound Z18712040], for which the “First screening IR (inhibition rate)” value is -7%.
For `Cc1cc(Br)ccc1SCC(=O)OC/C(O)=C(\C#N)c1nc2ccccc2[nH]1` [Compound Z18738204] the value was 43%; for `N#C/C(=C(/O)COC(=O)c1cc(F)c(F)cc1Cl)c1nc2ccccc2[nH]1` [Compound Z18771813], 8%.
For `COc1ccc2cc(-c3cc(C(=O)OCC(=O)Nc4cccc(C)c4)c4ccccc4n3)ccc2c1` [Compound Z18792577] the value was -12%.
Consider `CCN(CC)S(=O)(=O)c1ccc(Cl)c(NC(=O)COC(=O)c2cc(-c3ccc4cc(OC)ccc4c3)nc3ccccc23)c1` [Compound Z18792611], for which the “First screening IR (inhibition rate)” value is -19%.
With `O=C(OCC(=O)N1N=C(c2ccc(Cl)cc2)CC1c1ccco1)c1cc(-c2ccco2)nc2ccccc12` (stereo not shown) [Compound Z18799147], the “First screening IR (inhibition rate)” value is recorded as 0%.
On to `CSc1ncccc1C(=O)OCC(=O)N1N=C(c2ccc3ccccc3c2)CC1c1ccccc1` (stereo not shown) [Compound Z18838070], for which the “First screening IR (inhibition rate)” value is listed as 9%.
Consider `CCc1nc2ccccc2c(C(=O)OCC(=O)Nc2cc(C(N)=O)cc(C(N)=O)c2)c1C` [Compound Z19092990], for which the “First screening IR (inhibition rate)” value was 2%.
On to `CN(CC(=O)Nc1ccccc1Cl)C(=O)COC(=O)c1c2c(nc3ccccc13)CCC(C(C)(C)C)C2` (stereo not shown) [Compound Z19182299], for which the “First screening IR (inhibition rate)” value was -2%.
As for `Cc1ccc(NC(=O)CSc2ncnc3ccccc23)cc1F` [Compound Z19314901], the “First screening IR (inhibition rate)” value was determined as 4%.
On to `CC1CCC(C(C)C)C(OC(=O)CSc2ncnc3ccccc23)C1` (stereo not shown) [Compound Z19316042], for which the “First screening IR (inhibition rate)” value is on record as 0%.
With `N#Cc1ccc(Cl)cc1NC(=O)CSc1ncnc2ccccc12` [Compound Z19316082], the “First screening IR (inhibition rate)” value worked out at 18%.
For `Cc1ccccc1Nc1nc(N)nc(CSc2nnc(NCc3ccccc3)s2)n1` [Compound Z19326161] the value was 1%; for `COc1ccc(/C=C2/CCCc3c2nc2ccccc2c3C(=O)OCC(=O)Nc2sc3c(c2C(=O)Nc2ccc(Cl)cc2)CCCC3)cc1` [Compound Z19394488], 7%.
For `Cc1ccccc1-n1c(SCC(=O)Nc2ccc(N3CCOCC3)cc2)nnc1-c1ccncc1` [Compound Z19446050], the “First screening IR (inhibition rate)” value is listed as -3%.

(Values after paper PMC5607274, “An iterative compound screening contest method for identifying target protein inhibitors using the tyrosine-protein kinase Yes” (Scientific Reports, 2017).)
